# Reference: patent US7026339B2, “Inhibitors of HCV NS5B polymerase” (priority 2003, dated 2006)
# Tested on: HuH-7 replicon cells 5–15 and 9–13 (HCV replication)
# Assay: Inhibition of viral replication in HuH-7 replicon cells (HCV RNA / GAPDH RNA by multiplex RT-PCR)
# Assay type: cell-based
# Settings: Hepatitis C virus, 72 h; inhibiting 50% of replication; HuH-7 replicon cells, 3 days; read-out: IC50
# Method in brief: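 HCV and GAPDH RNA were measured by multiplex TaqMan RT-PCR (HCV 5′ untranslated region) after 3-day compound treatment at 37 °C, final 100 μM–1 μM in 1% DMSO. Cells were plated 24 h beforehand at 7×10^3/well. Read-out: HCV-to-GAPDH ratio expressed as percent control versus untreated cells.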
row,SMILES,IC50
1,"COc1cccc(CC(=O)N/N=C/c2c(Br)ccc(OC)c2OS(=O)(=O)c2ccc(C(F)(F)F)cc2)c1 [Compound 169, 3-bromo-6-methoxy-2-((E)-{[(3-methoxyphenyl)acetyl]hydrazono}methyl)-phenyl 4-(trifluoromethyl)benzenesulfonate]",< 5 µM
2,"COc1cccc(CC(=O)N/N=C/c2c(OC)cccc2OS(=O)(=O)c2ccc(C(F)(F)F)cc2)c1 [Compound 170, 3-methoxy-2-((E)-{[(3-methoxyphenyl)acetyl]hydrazono}methyl)-phenyl 4-(trifluoromethyl)benzenesulfonate]",< 5 µM
3,"COc1cccc(CC(=O)N/N=C/c2cc(C)ccc2OS(=O)(=O)c2ccc(C(F)(F)F)cc2)c1 [Compound 171, 2-((E)-{[(3-methoxyphenyl)acetyl]hydrazono}methyl)-4-methylphenyl 4-(trifluoromethyl)benzenesulfonate]",< 5 µM
4,"COc1cccc(CC(=O)N/N=C/c2cc(F)ccc2OS(=O)(=O)c2ccc(C(F)(F)F)cc2)c1 [Compound 172, 4-fluoro-2-((E)-{[(3-methoxyphenyl)acetyl]hydrazono}methyl)-phenyl 4-(trifluoromethyl)benzenesulfonate]",< 5 µM
5,"Cc1cccc(/C=N/NC(=O)Cc2cccc(Cl)c2)c1OS(=O)(=O)c1ccc(C(F)(F)F)cc1 [Compound 173, 2-((E)-{[(3-chlorophenyl)acetyl]hydrazono}methyl)-6-methylphenyl 4-(trifluoromethyl)benzenesulfonate]",< 5 µM
6,"COc1cccc(OS(=O)(=O)c2ccc(C(F)(F)F)cc2)c1/C=N/NC(=O)Cc1cccc(Cl)c1 [Compound 174, 2-((E)-{[(3-chlorophenyl)acetyl]hydrazono}methyl)-3-methoxyphenyl 4-(trifluoromethyl)benzenesulfonate]",< 5 µM
7,"Cc1ccc(OS(=O)(=O)c2ccc(C(F)(F)F)cc2)c(/C=N/NC(=O)Cc2cccc(Cl)c2)c1 [Compound 175, 2-((E)-{[(3-chlorophenyl)acetyl]hydrazono}methyl)-4-methylphenyl 4-(trifluoromethyl)benzenesulfonate]",< 5 µM
8,"O=C(Cc1cccc(Cl)c1)N/N=C/c1cc(F)ccc1OS(=O)(=O)c1ccc(C(F)(F)F)cc1 [Compound 176, 2-((E)-{[(3-chlorophenyl)acetyl]hydrazono}methyl)-4-fluorophenyl 4-(trifluoromethyl)benzenesulfonate]",< 5 µM
9,"COc1cccc(CC(=O)N/N=C/c2ccc(C)cc2OS(=O)(=O)c2ccc(C)cc2)c1 [Compound 177, 2-((E)-{[(3-methoxyphenyl)acetyl]hydrazono}methyl)-5-methylphenyl 4-methylbenzenesulfonate]",< 5 µM
10,"COc1cccc(CC(=O)N/N=C/c2ccc(C)cc2OS(=O)(=O)c2ccc(C(F)(F)F)cc2)c1 [Compound 178, 2-((E)-{[(3-methoxyphenyl)acetyl]hydrazono}methyl)-5-methylphenyl 4-(trifluoromethyl)benzenesulfonate]",< 5 µM
11,"Cc1ccc(/C=N/NC(=O)Cc2cccc(Cl)c2)c(OS(=O)(=O)c2ccc(C(F)(F)F)cc2)c1 [Compound 179, 2-((E)-{[(3-chlorophenyl)acetyl]hydrazono}methyl)-5-methylphenyl 4-(trifluoromethyl)benzenesulfonate]",> 50 µM
12,"COc1cccc(CC(=O)N/N=C/c2cccc(Cl)c2OS(=O)(=O)c2ccc(C)cc2)c1 [Compound 180, 2-chloro-6-((E)-{[(3-methoxyphenyl)acetyl]hydrazono}methyl)-phenyl 4-methylbenzenesulfonate]",< 5 µM
13,"COc1cccc(CC(=O)N/N=C/c2cccnc2OS(=O)(=O)c2ccc(C)cc2)c1 [Compound 181, 3-((E)-{2-[2-(3-methoxyphenyl)acetyl]hydrazono}methyl)-pyridin-2-yl 4-methylbenzenesulfonate]",5 to 50 µM
14,"COc1cccc(CC(=O)N/N=C/c2ccccc2OS(=O)(=O)c2ccc3nsnc3c2)c1 [Compound 182, 2-((E)-{2-[2-(3-methoxyphenyl)acetyl]hydrazono}methyl)-phenyl 2,1,3-benzothiadiazole-5-sulfonate]",< 5 µM
15,"CCCCCc1ccc(S(=O)(=O)Oc2ccccc2/C=N/NC(=O)Cc2cccc(OC)c2)cc1 [Compound 183, 2-((E)-{2-[2-(3-methoxyphenyl)acetyl]hydrazono}methyl)-phenyl 4-pentylbenzenesulfonate]",< 5 µM
16,"CCCc1ccc(S(=O)(=O)Oc2ccccc2/C=N/NC(=O)Cc2cccc(OC)c2)cc1 [Compound 184, 2-((E)-{2-[2-(3-methoxyphenyl)acetyl]hydrazono}methyl)-phenyl 4-propylbenzenesulfonate]",< 5 µM
17,"COc1cccc(CC(=O)N/N=C/c2ncccc2OS(=O)(=O)c2ccc(C)cc2)c1 [Compound 185, 2-((E)-{2-[2-(3-methoxyphenyl)acetyl]hydrazono}methyl)-pyridin-3-yl 4-methylbenzenesulfonate]",< 5 µM

row,SMILES,IC50
1,"COc1cccc(CC(=O)N/N=C/c2ccccc2OS(=O)(=O)c2ccc(OC(C)C)cc2)c1 [Compound 186, 2-((E)-{2-[2-(3-methoxyphenyl)acetyl]hydrazono}methyl)-phenyl 4-isopropoxybenzenesulfonate]",< 5 µM
2,"COc1cccc(CC(=O)N/N=C/c2ccccc2OS(=O)(=O)c2cc(Cl)sc2Cl)c1 [Compound 187, 2-((E)-{2-[2-(3-methoxyphenyl)acetyl]hydrazono}methyl)-phenyl 2,5-dichlorothiophene-3-sulfonate]",< 5 µM
3,"COc1cccc(CC(=O)N/N=C/c2ccccc2OS(=O)(=O)c2cnn(-c3ccccc3)c2C)c1 [Compound 188, 2-((E)-{2-[2-(3-methoxyphenyl)acetyl]hydrazono}methyl)-phenyl 5-methyl-1-phenyl-1H-pyrazole-4-sulfonate]",< 5 µM
4,"COc1cccc(CC(=O)N/N=C/c2ccccc2OS(=O)(=O)Cc2cccc(C(F)(F)F)c2)c1 [Compound 189, 2-((E)-{2-[2-(3-methoxyphenyl)acetyl]hydrazono}methyl)-phenyl [3-(trifluoromethyl)phenyl]methanesulfonate]",> 50 µM
5,"COc1cccc(CC(=O)N/N=C/c2ccccc2OS(=O)(=O)c2ccc(Br)s2)c1 [Compound 190, 2-((E)-{2-[2-(3-methoxyphenyl)acetyl]hydrazono}methyl)-phenyl 5-bromothiophene-2-sulfonate]",< 5 µM
6,"COc1cccc(CC(=O)N/N=C/c2ccccc2OS(=O)(=O)c2ccc(Oc3ccccc3)cc2)c1 [Compound 191, 2-((E)-{2-[2-(3-methoxyphenyl)acetyl]hydrazono}methyl)-phenyl 4-phenoxybenzenesulfonate]",> 50 µM
7,"COc1cccc(CC(=O)N/N=C/c2ccccc2OS(=O)(=O)c2ccc(-c3cc(C(F)(F)F)on3)s2)c1 [Compound 192, 2-((E)-{2-[2-(3-methoxyphenyl)acetyl]hydrazono}methyl)-phenyl 5-[5-(trifluoromethyl)isoxazol-3-yl]thiophene-2-sulfonate]",< 5 µM
8,"COc1cccc(CC(=O)N/N=C/c2c(Cl)cccc2OS(=O)(=O)c2ccc(C(F)(F)F)cc2)c1 [Compound 193, 3-chloro-2-((E)-{[(3-methoxyphenyl)acetyl]hydrazono}methyl)-phenyl 4-(trifluoromethyl)benzenesulfonate]",< 5 µM
9,"O=C(Cc1cccc(Cl)c1)N/N=C/c1c(Cl)cccc1OS(=O)(=O)c1ccc(C(F)(F)F)cc1 [Compound 194, 3-chloro-2-((E)-{[(3-chlorophenyl)acetyl]hydrazono}methyl)-phenyl 4-(trifluoromethyl)benzenesulfonate]",< 5 µM
10,"COc1cccc(CC(=O)N/N=C/c2ccccc2OS(=O)(=O)c2ccc(C(C)=O)cc2)c1 [Compound 195, 2-((E)-{2-[2-(3-methoxyphenyl)acetyl]hydrazono}methyl)-phenyl 4-acetylbenzenesulfonate]",< 5 µM
11,"COc1cccc(CC(=O)N/N=C/c2ccccc2OS(=O)(=O)c2ccc(-n3cccn3)cc2)c1 [Compound 196, 2-((E)-{2-[2-(3-methoxyphenyl)acetyl]hydrazono}methyl)-phenyl 4-(1H-pyrazol-1-yl)benzenesulfonate]",< 5 µM
12,"COc1cccc(CC(=O)N/N=C/c2ccccc2OS(=O)(=O)c2ccc(-c3cnco3)cc2)c1 [Compound 197, 2-((E)-{2-[2-(3-methoxyphenyl)acetyl]hydrazono}methyl)-phenyl 4-(1,3-oxazol-5-yl)benzenesulfonate]",< 5 µM
13,"CCC(C)(C)c1ccc(S(=O)(=O)Oc2ccccc2/C=N/NC(=O)Cc2cccc(OC)c2)cc1 [Compound 198, 2-((E)-{2-[2-(3-methoxyphenyl)acetyl]hydrazono}methyl)-phenyl 4-(1,1-dimethylpropyl)benzenesulfonate]",< 5 µM
14,"CCCCOc1ccc(S(=O)(=O)Oc2ccccc2/C=N/NC(=O)Cc2cccc(OC)c2)cc1 [Compound 199, 2-((E)-{2-[2-(3-methoxyphenyl)acetyl]hydrazono}methyl)-phenyl 4-butoxybenzenesulfonate]",< 5 µM
15,"COc1cccc(CC(=O)N/N=C/c2ccccc2OS(=O)(=O)c2ccc(-c3cnco3)s2)c1 [Compound 200, 2-((E)-{2-[2-(3-methoxyphenyl)acetyl]hydrazono}methyl)-phenyl 5-(1,3-oxazol-5-yl)thiophene-2-sulfonate]",< 5 µM
16,"COc1cccc(CC(=O)N/N=C/c2ccccc2OS(=O)(=O)c2ccc(Oc3ccccc3)nc2)c1 [Compound 201, 2-((E)-{2-[2-(3-methoxyphenyl)acetyl]hydrazono}methyl)-phenyl 6-phenoxypyridine-3-sulfonate]",< 5 µM
17,"COc1cccc(CC(=O)N/N=C/c2ccccc2OS(=O)(=O)c2ccc(Oc3ccc(F)cc3)cc2)c1 [Compound 202, 2-((E)-{2-[2-(3-methoxyphenyl)acetyl]hydrazono}methyl)-phenyl 4-(4-fluorophenoxy)benzenesulfonate]",> 50 µM
